This is an account of results in article PMC9145865, “Effects of Rare Phytocannabinoids on the Endocannabinoid System of Human Keratinocytes” (International Journal of Molecular Sciences, 2022).

SMILES strings stand for the structures.

For assay [1], the system named is NAPE-PLD. In words: NAPE-PLD activity assay in homogenates of treated cells. The format is cell-based, human. As to conditions: HaCaT cells, half-IC50 amount, 24 h, vs. control. How it is done:
NAPE-PLD: The HaCaT cells were seeded into 6-well plates at a density of 4 × 10^4 per well, incubated overnight and then treated with the selected pCBs (6.0 µM of CBG, 4.0 µM of CBC, 9.0 µM of THCV and 13.0 µM of CBGA) for 24 h. The cell pellets were collected and NAPE-PLD activity was determined in the homogenates of the cells after 24 h of treatment with each pCB. Then, the homogenates were incubated in a reaction mixture that contained 50 mM of Tris–HCl, 0.05% Triton X-100 pH 8.0 and 10 µM of fluorogenic substrate PED6 (N-((6-(2,4-Dinitrophenyl)amino)hexanoyl)-2(4,4-Difluoro-5,7-Dimethyl-4-Bora-3a,4a-Diaza-s-Indacene-3-Pentanoyl)-1-Hexadecanoyl-sn-Glycero-3 Phosphoethanolamine, Triethylammonium Salt). The homogenates were pre-incubated with the specific NAPE-PLD inhibitor ARN19874 at 3.8 mM [65] (Cayman Chemical, Ann Arbor, MI, USA) for 30 min at room temperature in order to fully erase the enzyme activity as a control. Fluorescence values were measured with excitation at λ = 485–488 nm and emission at λ = 530 nm at 37 °C by means of continuity kinetics at 30-sec intervals for 30 min in an Enspire multimode plate reader (Perkin Elmer, Waltham, MA, USA), as reported in [66]. NAPE-PLD activity was expressed as florescence intensity (arbitrary units, AU) per min per mg of protein.

The subject of assay [2] is MAGL. Briefly: qRT-PCR gene expression of MAGL. The format is cell-based, human. As to conditions: HaCaT cells, half-IC50 dose, 24 h, vs. control. As to the method:
(§1) The HaCaT cells were seeded into 6-well plates at a density of 4 × 10^4 per well, incubated overnight and then treated with the selected pCBs (CBG (6.0 µM), CBC (4.0 µM), THCV (9.0 µM) and CBGA (13.0 µM)) for 24 h. The cell pellets were collected and RT-PCR reactions were performed using the RevertAid H Minus First Strand cDNA Synthesis Kit. The relative abundance was assessed via RT quantitative PCR (RT-qPCR) using the SensiFAST SYBR Lo-ROX Kit in an Applied Biosystems 7500 Fast Real-Time PCR System (Life Technologies). To provide the precise quantification of the initial target in each PCR reaction, the amplification plot was examined, as well as the point of early log phase of the product accumulation, which was defined by assigning a fluorescence threshold above the background that was defined as the threshold cycle number or “Ct. Differences” in threshold cycle number that was used to quantify the relative amount of the PCR targets that were contained within each tube. After PCR, a dissociation curve (melting curve) was constructed in the range of 60 °C to 95 °C [62] to evaluate the specificity of the amplification products. The relative expression of the different amplicons was calculated using the delta–delta Ct (ΔΔCt) method and then converted into the relative expression ratio (2^−ΔΔCt) for statistical analysis. […]
On the technique in general: Real-time PCR tracks product formation cycle by cycle.

Assay [3] has as its system 2-AG. Briefly: Endogenous 2-AG content by UHPLC-MS/MS. The format is cell-based, human. As to conditions: HaCaT cells, half-IC50 dose, 24 h, vs. control. As to the method:
(§2) The HaCaT cells were seeded into 6-well plates at a density of 4 × 10^4 per well, incubated overnight and then treated with the selected pCBs (6.0 µM of CBG, 4.0 µM of CBC, 9.0 µM of THCV and 13.0 µM of CBGA) for 24 h. The analytical standards that were used were N-arachidonoylethanolamine (AEA), N-arachidonoylethanolamine-d8 (AEA-d8), 2-arachidonoylglicerol (2-AG), 2-arachidonoylglicerol-d8 (2-AG-d8), N-palmitoylethanolamine (PEA) and […] (PEA-d4). The lipid fraction from these cells was extracted using chloroform–methanol–water (2:1:1 v/v) in the presence of ISs (1 ng/mL^−1 of AEA-d8, 100 ng mL^−1 of 2-AG-d8 and 1 ng mL^−1 of PEA-d4). The organic phase was dried under gentle nitrogen stream and then subjected to a micro-solid phase extraction (µSPE) procedure for a rapid clean-up using OMIX C18 tips from Agilent Technologies (Santa Clara, CA, USA). All analyses were performed using a Nexera XR LC 20 AD UHPLC system (Shimadzu Scientific Instruments, USA) that was equipped with Kinetex XB-C18 1.7 µm 100 × 2.1 mm from Phenomenex (Torrance, CA, USA) (for the LC parameters, see Figure S5) and coupled with a 4500 Qtrap from Sciex (Toronto, ON, Canada) that was equipped with a Turbo V electrospray ionization (ESI) source (the MS/MS parameters are shown in Table S1). The levels of AEA, 2-AG and PEA were then calculated as pmoles per 10^6 cells, as reported in [60].

For assay [4], the system named is PEA. Briefly: Endogenous PEA content by UHPLC-MS/MS. The format is cell-based, human. The following applies: HaCaT cells, half-IC50 dose, 24 h, vs. control. How it is done:
as §2

In assay [5] the test system is transformed human keratinocytes. The arrangement: method as in PMID 17157480. As to conditions: hyperproliferative conditions; ref [46]; cited from earlier work.
Assay [6] concerns skin. The arrangement: method as in PMID 35056807. As to conditions: applied topically; ref [59]; cited from earlier work.
The test system of assay [7] is DAGLβ. Briefly: Western blot protein expression of DAGLβ. The format is cell-based, human. As to conditions: HaCaT cells, half-IC50 dose, 24 h, vs. control. How it is done:
The HaCaT cells were seeded into 6-well plates at a density of 4 × 10^4 per well, incubated overnight and then treated with the selected pCBs (6.0 µM of CBG, 4.0 µM of CBC, 9.0 µM of THCV and 13.0 µM of CBGA) for 24 h. The cell pellets were collected and then lysed in an ice-cold lysis buffer (10 mM of EDTA, 50 mM of pH 7.4 Tris–HCl, 150 mM of sodium chloride, 1% Triton-X-100, 2 mM of phenylmethylsulfonyl fluoride, 2 mM of sodium orthovanadate, […] of leupeptin and […] of aprotinin). The amount of protein was determined using the Bio-Rad Protein assay (Bio-Rad Laboratories, Hemel Hempstead, UK). An equal amount of protein (60 µg) was loaded onto 10% sodium dodecyl sulfate–polyacrylamide gels and blotted onto polyvinylidene fluoride sheets (Amersham Biosciences, Piscataway, NJ, USA). The membranes were blocked with dried 5% non-fat milk for 1 h and then incubated with suitable primary antibodies. Detection was performed using Azure Biosystems c400 (Dublin, CA, USA). The membranes were stripped using the Restore Western Blot Stripping Buffer from Thermo Fisher Scientific (Waltham, MA, USA) for 30 min under agitation at room temperature, according to the manufacturer’s instructions. The primary antibodies (Table 6) that were used were obtained from the following sources: […]
Background: A western blot detects proteins with antibodies after separation by electrophoresis.

Assay [8] has as its system CB1. As to conditions: in vivo and in vitro; ref [53]; cited from earlier work.
Assay [9] deals with NAPE-PLD. In words: qRT-PCR gene expression of NAPE-PLD. The format is cell-based, human. The following applies: HaCaT cells, half-IC50 dose, 24 h, vs. control. As to the method:
as §1

`CCCCCc1cc(O)c(C/C=C(\C)CCC=C(C)C)c(O)c1C(=O)O` [CBGA, cannabigerolic acid]: in assay [1], the “activity of NAPE-PLD” value was “significantly increased”.
For the compound `CCCCCc1cc(O)c(C/C=C(\C)CCC=C(C)C)c(O)c1` [CBG, cannabigerol], the “gene expression of MAGL (in words)” value in [2] was “significantly increase”. In addition, in assay [3], the “endogenous 2-AG content” value is given as “markedly increased”. In assay [4], the “endogenous PEA content” value was “markedly increased”. Also, in assay [5], the “proliferation of transformed human keratinocytes” value is on record as “inhibit the proliferation”. Also, the “skin health after topical application” value in [6] was “reducing the appearance of redness and improving barrier function”.
As to `CCCc1cc(O)c2c(c1)OC(C)(C)[C@@H]1CCC(C)=C[C@@H]21` [THCV, Δ^9-tetrahydrocannabivarin], in assay [7], the “DAGLβ protein expression (in words)” value is given as “significantly reduced” and the “Protein Expression DAGLβ” value was “↓+++”. Also, in [8], the “activity at CB1” value is “CB1 antagonist”.
Consider `CCCCCc1cc(O)c2c(c1)OC(C)(CCC=C(C)C)C=C2` (stereo not shown) [CBC, cannabichromene], for which, in assay [9], the “gene expression of NAPE-PLD (in words)” value is “significantly increased”.
